Measurements from ChEMBL document CHEMBL3044567, “Synthesis and biological evaluation of novel condensed pyrimidinylmethylsulfinylbenzimidazoles as antiulcer agent” (2013).

What was measured:
Format in all cases: functional, Stomach
[1] = tested on: Rattus norvegicus; test: Antiulcer activity in Wistar Rattus norvegicus (rat) assessed as decrease in total acidity of gastric secretions at 0.0289 mM/kg, po administered 1 hr prior to pylorous ligation measured after 19 hr by titRattus norvegicus (rat)ion assay relative to untreated control; parameters: scale not given: the % may be the effect or the level left
[2] = tested on: Rattus norvegicus; test: Antiulcer activity in Wistar Rattus norvegicus (rat) assessed as decrease in total volume of gastric secretions at 0.0579 mM/kg, po administered 1 hr prior to pylorous ligation measured after 19 hr relative to untreated control; parameters: scale not given: the % may be the effect or the level left
[3] = tested on: Rattus norvegicus; test: Antiulcer activity in Wistar Rattus norvegicus (rat) assessed as decrease in total acidity of gastric secretions at 0.1158 mM/kg, po administered 1 hr prior to pylorous ligation measured after 19 hr by titRattus norvegicus (rat)ion assay relative to untreated control; parameters: scale not given: the % may be the effect or the level left
[4] = tested on: Rattus norvegicus; test: Antiulcer activity in Wistar Rattus norvegicus (rat) assessed as increase in pH of gastric secretions at 0.0579 mM/kg, po administered 1 hr prior to pylorous ligation measured after 19 hr by digital pH metric analysis relative to untreated control
[5] = tested on: Rattus norvegicus; test: Antiulcer activity in Wistar Rattus norvegicus (rat) assessed as decrease in total volume of gastric secretions at 0.1158 mM/kg, po administered 1 hr prior to pylorous ligation measured after 19 hr relative to untreated control; parameters: scale not given: the % may be the effect or the level left
[6] = tested on: Rattus norvegicus; test: Antiulcer activity in Wistar Rattus norvegicus (rat) assessed as increase in pH of gastric secretions at 0.1158 mM/kg, po administered 1 hr prior to pylorous ligation measured after 19 hr by digital pH metric analysis relative to untreated control
[7] = tested on: Rattus norvegicus; test: Antiulcer activity in Wistar Rattus norvegicus (rat) assessed as change in pH of gastric secretions at 0.0289 mM/kg, po administered 1 hr prior to pylorous ligation measured after 19 hr by digital pH metric analysis relative to untreated control
[8] = tested on: Rattus norvegicus; test: Antiulcer activity in Wistar Rattus norvegicus (rat) assessed as decrease in total volume of gastric secretions at 0.0289 mM/kg, po administered 1 hr prior to pylorous ligation measured after 19 hr relative to untreated control; parameters: scale not given: the % may be the effect or the level left
[9] = tested on: Rattus norvegicus; test: Antiulcer activity in Wistar Rattus norvegicus (rat) assessed as decrease in total acidity of gastric secretions at 0.0579 mM/kg, po administered 1 hr prior to pylorous ligation measured after 19 hr by titRattus norvegicus (rat)ion assay relative to untreated control; parameters: scale not given: the % may be the effect or the level left

Compound | Activity [1] | Activity [2] | Activity [3] | Activity [4] | Activity [5] | Activity [6] | Activity [7] | Activity [8] | Activity [9]
[O-][S+](Cc1nc(OCC(F)(F)F)c2c3c(sc2n1)CCCC3)c1nc2ccccc2[nH]1 (configuration not stated) | 27.08% | 29.78% | 52.14% | 6.28% | 34.57% | 14.13% | 5.45% | 60.1% | 38.14%
COc1ccc2[nH]c([S+]([O-])Cc3nc(OC)c4c(-c5ccc(Cl)cc5)csc4n3)nc2c1 (configuration not stated) | 5.41% | 43.88% | 37.92% | 2.25% | 55.58% | 3.048% | 5.41% | 28.19% | 22.12%
[O-][S+](Cc1nc(OCC(F)(F)F)c2c(-c3ccc(Cl)cc3)csc2n1)c1nc2ccccc2[nH]1 (configuration not stated) | 22.34% | 50.26% | 52.82% | 17.97% | 60.37% | 32.86% | 2.03% | 43.08% | 41.76%
[O-][S+](Cc1nc(OCC(F)(F)F)c2c(-c3ccccc3)csc2n1)c1nc2ccccc2[nH]1 (configuration not stated) | 16.93% | 45.21% | 45.37% | 0.1% | 50.53% | 8.09% | 3.69% | 49.46% | 26.18%
COc1nc(C[S+]([O-])c2nc3ccccc3[nH]2)nc2scc(-c3ccccc3)c12 (configuration not stated) | 23.92% | 61.96% | 36.79% | 6.19% | 72.34% | 9.91% | 0.72% | 70.74% | 25.28%
COc1ccc2[nH]c([S+]([O-])Cc3nc(Cl)c4c(-c5ccc(Cl)cc5)csc4n3)nc2c1 (configuration not stated) | 18.05% | 67.28% | 44.01% | 5.91% | 73.67% | 19.72% | 1.44% | 56.64% | 24.37%
COc1nc(C[S+]([O-])c2nc3ccccc3[nH]2)nc2scc(-c3ccc(Cl)cc3)c12 (configuration not stated) | 32.05% | 58.24% | 51.46% | 11.17% | 69.68% | 23.31% | 8.96% | 52.65% | 42.43%
COc1ccc2[nH]c([S+]([O-])Cc3ncc(C)c(OC)c3C)nc2c1 (configuration not stated) [OMEPRAZOLE] | 49.66% | 63.55% | 71.55% | 55.79% | 73.93% | 62.67% | 50.9% | 53.72% | 56.65%
COc1nc(C[S+]([O-])c2nc3ccccc3[nH]2)nc2sc3c(c12)CCCC3 (configuration not stated) | 24.15% | 51.06% | 39.27% | 17.33% | 50% | 23.55% | 6.65% | 23.93% | 37.69%
COc1ccc2[nH]c([S+]([O-])Cc3nc(Cl)c4c(-c5ccccc5)csc4n3)nc2c1 (configuration not stated) | 20.76% | 68.08% | 40.18% | 5.54% | 76.32% | 14.36% | 5.45% | 42.02% | 25.5%
COc1ccc2[nH]c([S+]([O-])Cc3nc(Cl)c4c5c(sc4n3)CCCC5)nc2c1 (configuration not stated) | 24.37% | 53.98% | 48.08% | 11.99% | 59.84% | 20.03% | 5.07% | 44.41% | 41.76%
COc1ccc2[nH]c([S+]([O-])Cc3nc(OC)c4c(-c5ccccc5)csc4n3)nc2c1 (configuration not stated) | 17.6% | 46.01% | 38.6% | 4.02% | 52.92% | 10.84% | 3.35% | 47.07% | 23.7%
COc1ccc2[nH]c([S+]([O-])Cc3nc(OC)c4c5c(sc4n3)CCCC5)nc2c1 (configuration not stated) | 29.57% | 77.39% | 50.33% | 9.05% | 57.71% | 10.33% | 1.44% | 69.94% | 33.86%
